Test results published in article PMC6960228, “Ethoxysanguinarine, a Novel Direct Activator of AMP-Activated Protein Kinase, Induces Autophagy and Exhibits Therapeutic Potential in Breast Cancer Cells” (Frontiers in Pharmacology, 2020).

Columns and labels:
Type in all cases: cell-based, human
[1] = test system: MCF-7, MDA-MB-231, and MDA-MB-436 cells; test: Trypan blue exclusion assay; conditions: dose- and time-dependent
Description: Cells were seeded into 96-well plate and pre-cultured for 24 h, then treated with Eth for 24. Cell cytotoxicity was determined by MTT assay. The absorbance was measured at 490 nm by automated microplated reader (BioTek Instruments, Inc., Winooski, VT, USA), and the cell death rate was calculated as followed: inhibition rate (%) = (average A490 of the control group − average A490 of the experimental group)/(average A490 of the control group − average A490 of the blank group) × 100%. Cell viability was estimated by trypan blue dye exclusion.

[2] = test system: ACC, Glut1, Glut3, and Glut4 in BC cells; test: Western blot of energy metabolism proteins
Description: Cells were lysed in radioimmunoprecipitation assay buffer containing 50 mM Tris, pH 8.0, 150 mM NaCl, 0.1% SDS, 0.5% sodium deoxycholate, 1% NP-40, 1 mM DTT, 1 mM NaF, 1 mM sodium orthovanadate, 1 mM phenylmethylsulfonyl fluoride (PMSF; Sigma-Aldrich; Merck KGaA), and 1% protease inhibitors cocktail (EMD Millipore, Billerica, MA, USA). Protein concentration was determined using the Bradford method. Equal amounts of sample (25 µg) were separated by SDS-PAGE (8–12% gels). Electrophoresed proteins were then transferred onto polyvinylidene fluoride membranes (EMD Millipore, Billerica, MA, USA). The membranes were blocked with 5% skimmed milk in Tris-buffered saline at room temperature for 1 h. Following blocking, membranes were incubated overnight at 4°C with primary antibodies and then rinsed with Tris-buffered saline with Tween 20. […]

[3] = test system: MCF-10A; test: MTT cytotoxicity assay
From the text: Human BC cell lines MCF-7, MDA-MB-231, DMA-MB-436, SK-BR3, MDA-MB-468, MDA-MB-453, and MDA-MB-435S and non-tumorigenic MCF-10A human mammary epithelial cells were obtained from American Type Culture Collection (ATCC; Manassas, VA, USA). MCF-7, SK-BR3, MDA-MB-231, and MDA-MB-436 cells were maintained in Dulbecco’s modified Eagle’s medium (DMEM; high glucose; Gibco; Thermo Fisher Scientific, Inc., Waltham, MA, USA) supplemented with 10% fetal bovine serum (FBS; HyClone; Logan, UT, USA) and antibiotics and incubated in a humidified atmosphere with 5% CO2 at 37°C. MDA-MB-468, MDA-MB-453, and MDA-MB-435S cells were maintained in Leibovitz’s L-15 (Gibco) supplemented with 10% FBS and antibiotics and incubated in a humidified atmosphere without CO2 at 37°C. MCF-10A cells were maintained in DMEM/F12 medium containing 5% horse serum (HS), insulin ([…]), epidermal growth factor (EGF, 20 ng/mL), choleratoxin ([…]), hydrocortisone ([…]), penicillin (50 U/mL), and streptomycin (50 U/mL), and incubated in a humidified atmosphere with CO2 at 37°C.
Cells were seeded into 96-well plate and pre-cultured for 24 h, then treated with Eth for 24. Cell cytotoxicity was determined by MTT assay. […]

CCOC1c2c(ccc3c2OCO3)-c2ccc3cc4c(cc3c2N1C)OCO4 (centres unmarked) [Eth, Ethoxysanguinarine]
viable cells [1]: rapidly reduced viable
expression and activation of ACC [2]: no significant effect
expression of Glut1, Glut3, and Glut4 ([2]; MCF-7 or MDA-MB-231 cells, 24 h): downregulated
IC50 ([3]; Homo sapiens, MCF-10A, 24 h, MTT assay, means ± SD of quadruplicate determinations): 12.3 ± 2.05 µM
sensitivity to Eth compared with the BC cell lines ([3]; normal human mammary epithelial cell line MCF-10A): less sensitive
